Measurements from patent EP4722207A1, “OXOISOINDOLINYL-SUBSTITUTED TETRAHYDROPYRIMIDINEDIONE DERIVATIVE AND USE THEREOF” (Gluetacs Therapeutics (Shanghai) Co., Ltd., priority 2023, dated 2024).

How the values were obtained:
Type in all cases: cell-based
Conditions in all cases: 24 hours of compound treatment, 50 nM and 500 nM
WEE1 = biological target: T1, WEE1 (Homo sapiens, UniProt P30291+Q96SW2); test: Western-blot assay, substrate protein degradation in hPBMCs: WEE1
T1 construct: effects of the compounds of the present disclosure on the expression of target proteins in cells; endogenous in cells; host or cells: human PBMCs (hPBMCs)
T1 sequence (P30291 whole entry): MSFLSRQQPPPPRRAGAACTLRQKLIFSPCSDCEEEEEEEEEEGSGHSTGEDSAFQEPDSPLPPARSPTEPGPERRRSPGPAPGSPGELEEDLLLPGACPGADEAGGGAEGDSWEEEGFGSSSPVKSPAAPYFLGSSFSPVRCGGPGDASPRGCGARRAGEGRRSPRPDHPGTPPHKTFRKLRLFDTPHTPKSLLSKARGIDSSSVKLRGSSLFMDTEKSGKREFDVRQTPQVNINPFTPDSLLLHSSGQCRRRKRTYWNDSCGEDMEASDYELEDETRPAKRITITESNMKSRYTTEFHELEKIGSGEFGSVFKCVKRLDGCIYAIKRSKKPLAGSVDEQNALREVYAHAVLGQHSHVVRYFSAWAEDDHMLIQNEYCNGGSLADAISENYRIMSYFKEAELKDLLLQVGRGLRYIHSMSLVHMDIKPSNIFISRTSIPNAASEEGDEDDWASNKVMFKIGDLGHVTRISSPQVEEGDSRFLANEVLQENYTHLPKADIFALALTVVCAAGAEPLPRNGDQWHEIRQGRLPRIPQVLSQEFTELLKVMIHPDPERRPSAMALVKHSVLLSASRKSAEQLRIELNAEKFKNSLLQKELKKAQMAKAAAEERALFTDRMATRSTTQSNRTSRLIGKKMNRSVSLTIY
T1 sequence (Q96SW2 whole entry): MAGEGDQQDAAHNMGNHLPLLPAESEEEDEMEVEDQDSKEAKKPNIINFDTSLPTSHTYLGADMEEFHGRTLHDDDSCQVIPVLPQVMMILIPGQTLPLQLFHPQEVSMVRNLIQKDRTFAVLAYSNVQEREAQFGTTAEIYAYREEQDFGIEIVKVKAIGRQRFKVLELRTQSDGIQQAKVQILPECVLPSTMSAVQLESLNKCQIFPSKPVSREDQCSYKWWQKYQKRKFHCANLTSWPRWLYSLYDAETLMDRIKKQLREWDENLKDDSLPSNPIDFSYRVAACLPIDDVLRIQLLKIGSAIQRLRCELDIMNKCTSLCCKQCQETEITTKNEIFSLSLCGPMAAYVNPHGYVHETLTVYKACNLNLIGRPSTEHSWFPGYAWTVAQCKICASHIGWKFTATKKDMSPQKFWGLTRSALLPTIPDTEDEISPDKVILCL
T1 sequence (Q16531 whole entry partner): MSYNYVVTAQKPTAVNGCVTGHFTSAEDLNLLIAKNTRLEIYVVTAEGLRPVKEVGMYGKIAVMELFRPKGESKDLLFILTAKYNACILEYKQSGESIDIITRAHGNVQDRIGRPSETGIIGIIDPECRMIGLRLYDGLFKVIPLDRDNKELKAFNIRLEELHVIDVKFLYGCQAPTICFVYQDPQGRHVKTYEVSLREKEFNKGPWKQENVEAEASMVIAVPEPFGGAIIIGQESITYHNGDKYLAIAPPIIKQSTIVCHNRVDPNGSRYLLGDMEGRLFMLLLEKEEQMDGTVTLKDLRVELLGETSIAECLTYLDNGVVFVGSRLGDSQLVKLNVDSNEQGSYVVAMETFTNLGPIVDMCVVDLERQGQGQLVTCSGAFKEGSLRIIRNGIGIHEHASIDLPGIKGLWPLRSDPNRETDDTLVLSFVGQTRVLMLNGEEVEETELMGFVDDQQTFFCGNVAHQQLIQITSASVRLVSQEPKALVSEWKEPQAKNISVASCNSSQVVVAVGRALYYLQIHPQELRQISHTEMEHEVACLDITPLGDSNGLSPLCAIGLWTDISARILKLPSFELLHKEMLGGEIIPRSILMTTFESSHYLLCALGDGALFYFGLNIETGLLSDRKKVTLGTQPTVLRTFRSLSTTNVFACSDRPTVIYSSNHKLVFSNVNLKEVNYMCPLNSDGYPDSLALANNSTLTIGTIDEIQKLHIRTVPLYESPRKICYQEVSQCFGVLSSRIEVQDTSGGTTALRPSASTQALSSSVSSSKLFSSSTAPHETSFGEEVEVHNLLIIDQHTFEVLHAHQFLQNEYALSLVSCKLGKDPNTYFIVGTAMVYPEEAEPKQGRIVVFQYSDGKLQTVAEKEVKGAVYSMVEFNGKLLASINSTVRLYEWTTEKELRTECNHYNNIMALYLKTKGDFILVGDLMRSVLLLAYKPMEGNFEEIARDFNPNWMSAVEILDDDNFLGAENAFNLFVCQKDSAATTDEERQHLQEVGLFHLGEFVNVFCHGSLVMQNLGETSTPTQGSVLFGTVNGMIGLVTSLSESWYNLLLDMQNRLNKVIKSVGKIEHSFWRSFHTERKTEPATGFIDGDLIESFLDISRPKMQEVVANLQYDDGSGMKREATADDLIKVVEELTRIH

IKZF1 = biological target: T2, IKZF1 (Homo sapiens, UniProt Q13422+Q96SW2); test: Western-blot assay, substrate protein degradation in hPBMCs: IKZF1
T2 construct: effects of the compounds of the present disclosure on the expression of target proteins in cells; endogenous in cells; host or cells: human PBMCs (hPBMCs)
T2 sequence (Q13422 whole entry): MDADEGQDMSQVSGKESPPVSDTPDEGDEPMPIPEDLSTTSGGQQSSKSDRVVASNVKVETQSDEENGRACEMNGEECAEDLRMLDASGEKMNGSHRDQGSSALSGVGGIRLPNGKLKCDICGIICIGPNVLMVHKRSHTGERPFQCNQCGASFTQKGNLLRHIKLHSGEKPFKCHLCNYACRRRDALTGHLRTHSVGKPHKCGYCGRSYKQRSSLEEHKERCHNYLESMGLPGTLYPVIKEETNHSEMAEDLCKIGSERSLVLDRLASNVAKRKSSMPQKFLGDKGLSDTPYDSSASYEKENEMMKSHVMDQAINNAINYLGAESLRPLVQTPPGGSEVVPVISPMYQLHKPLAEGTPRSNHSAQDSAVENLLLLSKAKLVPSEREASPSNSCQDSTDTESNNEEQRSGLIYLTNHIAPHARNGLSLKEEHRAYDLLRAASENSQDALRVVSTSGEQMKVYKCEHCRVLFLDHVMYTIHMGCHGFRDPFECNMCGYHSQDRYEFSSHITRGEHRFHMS
T2 sequence (Q96SW2 whole entry): as the sequence (Q96SW2 whole entry) above
T2 sequence (Q16531 whole entry partner): as the sequence (Q16531 whole entry partner) above

IKZF2 = biological target: T3, IKZF2 (Homo sapiens, UniProt Q96SW2+Q9UKS7); test: Western-blot assay, substrate protein degradation in hPBMCs: IKZF2
T3 construct: effects of the compounds of the present disclosure on the expression of target proteins in cells; endogenous in cells; host or cells: human PBMCs (hPBMCs)

IKZF3 = biological target: T4, IKZF3 (Homo sapiens, UniProt Q96SW2+Q9UKT9); test: Western-blot assay, substrate protein degradation in hPBMCs: IKZF3
T4 construct: effects of the compounds of the present disclosure on the expression of target proteins in cells; endogenous in cells; host or cells: human PBMCs (hPBMCs)
T4 sequence (Q9UKT9 whole entry): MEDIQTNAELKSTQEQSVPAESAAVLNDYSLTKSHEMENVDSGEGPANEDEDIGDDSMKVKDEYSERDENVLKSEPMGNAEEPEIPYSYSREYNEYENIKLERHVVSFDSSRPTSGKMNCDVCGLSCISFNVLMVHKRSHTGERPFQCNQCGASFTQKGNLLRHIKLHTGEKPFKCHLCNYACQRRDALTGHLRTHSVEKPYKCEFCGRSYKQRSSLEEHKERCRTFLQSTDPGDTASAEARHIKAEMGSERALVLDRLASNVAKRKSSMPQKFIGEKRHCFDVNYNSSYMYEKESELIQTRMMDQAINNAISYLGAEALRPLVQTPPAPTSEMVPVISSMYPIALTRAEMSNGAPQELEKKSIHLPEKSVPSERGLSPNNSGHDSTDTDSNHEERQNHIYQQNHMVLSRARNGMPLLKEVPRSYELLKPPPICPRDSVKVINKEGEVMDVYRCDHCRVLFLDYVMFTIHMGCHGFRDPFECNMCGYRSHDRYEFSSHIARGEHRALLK
T4 sequence (Q96SW2 whole entry): as the sequence (Q96SW2 whole entry) above
T4 sequence (Q16531 whole entry partner): as the sequence (Q16531 whole entry partner) above

CK1α = biological target: T5, CK1α (Homo sapiens, UniProt P48729+Q96SW2); test: Western-blot assay, substrate protein degradation in hPBMCs: CK1α
T5 construct: effects of the compounds of the present disclosure on the expression of target proteins in cells; endogenous in cells; host or cells: human PBMCs (hPBMCs)
T5 sequence (P48729 whole entry): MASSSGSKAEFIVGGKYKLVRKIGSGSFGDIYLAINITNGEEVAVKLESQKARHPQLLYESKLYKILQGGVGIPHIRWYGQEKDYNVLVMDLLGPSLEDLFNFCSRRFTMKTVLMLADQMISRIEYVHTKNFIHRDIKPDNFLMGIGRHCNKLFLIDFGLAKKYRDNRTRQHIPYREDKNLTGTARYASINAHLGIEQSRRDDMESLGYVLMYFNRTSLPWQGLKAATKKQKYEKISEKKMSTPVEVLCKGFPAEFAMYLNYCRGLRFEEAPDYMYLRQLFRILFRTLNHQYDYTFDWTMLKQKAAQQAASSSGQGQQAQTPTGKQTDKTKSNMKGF
T5 sequence (Q96SW2 whole entry): as the sequence (Q96SW2 whole entry) above
T5 sequence (Q16531 whole entry partner): as the sequence (Q16531 whole entry partner) above

GSPT1 = biological target: T6, GSPT1 (Homo sapiens, UniProt P15170+Q96SW2); test: Western-blot assay, substrate protein degradation in hPBMCs: GSPT1
T6 construct: effects of the compounds of the present disclosure on the expression of target proteins in cells; endogenous in cells; host or cells: human PBMCs (hPBMCs)
T6 sequence (P15170 whole entry): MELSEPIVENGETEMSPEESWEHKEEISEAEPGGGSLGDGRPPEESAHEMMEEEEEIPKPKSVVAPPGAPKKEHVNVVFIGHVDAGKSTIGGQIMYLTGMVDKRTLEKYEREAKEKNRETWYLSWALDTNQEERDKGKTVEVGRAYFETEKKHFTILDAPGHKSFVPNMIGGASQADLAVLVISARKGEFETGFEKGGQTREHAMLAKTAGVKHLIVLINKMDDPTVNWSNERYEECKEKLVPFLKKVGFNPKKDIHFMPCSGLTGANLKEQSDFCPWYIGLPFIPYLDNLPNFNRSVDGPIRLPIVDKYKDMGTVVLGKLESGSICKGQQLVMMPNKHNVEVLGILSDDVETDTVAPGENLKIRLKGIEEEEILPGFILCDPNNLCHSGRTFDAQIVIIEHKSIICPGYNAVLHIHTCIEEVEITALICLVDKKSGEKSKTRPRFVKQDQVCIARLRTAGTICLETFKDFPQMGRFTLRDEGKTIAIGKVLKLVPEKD
T6 sequence (Q96SW2 whole entry): as the sequence (Q96SW2 whole entry) above
T6 sequence (Q16531 whole entry partner): as the sequence (Q16531 whole entry partner) above

Row | Structure (SMILES) | substrate protein remaining % WEE1 (WEE1) | substrate protein remaining % IKZF1 (IKZF1) | substrate protein remaining % IKZF2 (IKZF2) | substrate protein remaining % IKZF3 (IKZF3) | substrate protein remaining % CK1α (CK1α) | substrate protein remaining % GSPT1 (GSPT1)
1 | O=C1CCN(N2Cc3cc(CN4CCN(c5nsc6cc(F)ccc56)CC4)ccc3C2=O)C(=O)N1 [GT-07500, 1-(5-((4-(6-fluorobenzo[d]isothiazol-3-yl)piperazin-1-yl)methyl)-1-oxoisoindolin-2-yl)dihydropyrimidine-2,4(1H,3H)-dione] | A (0% ≤ substrate protein remaining % ≤ 80%) | A (0% ≤ substrate protein remaining % ≤ 80%) | B (80%< substrate protein remaining %≤ 100%) | B (80%< substrate protein remaining %≤ 100%) | A (0% ≤ substrate protein remaining % ≤ 80%) | A (0% ≤ substrate protein remaining % ≤ 80%)
2 | O=C1CCN(N2Cc3cc(CN4CCN(c5c[nH]c6ncccc56)CC4)ccc3C2=O)C(=O)N1 [GT-07502, 1-(5-((4-(1H-pyrrolo[2,3-b]pyridin-3-yl)piperazin-1-yl)methyl)-1-oxoisoindolin-2-yl)dihydropyrimidine-2,4(1H,3H)-dione] | A (0% ≤ substrate protein remaining % ≤ 80%) | A (0% ≤ substrate protein remaining % ≤ 80%) | B (80%< substrate protein remaining %≤ 100%) | B (80%< substrate protein remaining %≤ 100%) | A (0% ≤ substrate protein remaining % ≤ 80%) | A (0% ≤ substrate protein remaining % ≤ 80%)
3 | O=C1CCN(N2Cc3cc(CN4CCC(n5cnc6cc(F)ccc65)CC4)ccc3C2=O)C(=O)N1 [GT-07503, 1-(5-((4-(5-fluoro-1H-benzo[d]imidazol-1-yl)piperidin-1-yl)methyl)-1-oxoisoindolin-2-yl)dihydropyrimidine-2,4(1H,3H)-dione] | A (0% ≤ substrate protein remaining % ≤ 80%) | A (0% ≤ substrate protein remaining % ≤ 80%) | B (80%< substrate protein remaining %≤ 100%) | B (80%< substrate protein remaining %≤ 100%) | A (0% ≤ substrate protein remaining % ≤ 80%) | A (0% ≤ substrate protein remaining % ≤ 80%)
4 | O=C1CCN(N2Cc3cc(CN4CCC(c5n[nH]c6cc(F)ccc56)CC4)ccc3C2=O)C(=O)N1 [GT-07508, 1-(5-((4-(6-fluoro-1H-indazol-3-yl)piperidin-1-yl)methyl)-1-oxoisoindolin-2-yl)dihydropyrimidine-2,4(1H,3H)-dione] | A (0% ≤ substrate protein remaining % ≤ 80%) | A (0% ≤ substrate protein remaining % ≤ 80%) | A (0% ≤ substrate protein remaining % ≤ 80%) | B (80%< substrate protein remaining %≤ 100%) | A (0% ≤ substrate protein remaining % ≤ 80%) | A (0% ≤ substrate protein remaining % ≤ 80%)
5 | O=C1CCN(N2C(=O)c3ccc(CN4CCC(c5noc6ccccc56)CC4)cc3C2=O)C(=O)N1 [GT-07522, 5-((4-(benzo[d]isoxazol-3-yl)piperidin-1-yl)methyl)-2-(2,4-dioxotetrahydropyrimidin-1(2H)-yl)isoindoline-1,3-dione] | A (0% ≤ substrate protein remaining % ≤ 80%) | A (0% ≤ substrate protein remaining % ≤ 80%) | A (0% ≤ substrate protein remaining % ≤ 80%) | B (80%< substrate protein remaining %≤ 100%) | A (0% ≤ substrate protein remaining % ≤ 80%) | A (0% ≤ substrate protein remaining % ≤ 80%)
6 | O=C1CCN(N2C(=O)c3ccc(CN4CCC(c5ccon5)CC4)cc3C2=O)C(=O)N1 [GT-07523, 2-(2,4-dioxotetrahydropyrimidin-1(2H)-yl)-5-((4-(isoxazol-3-yl)piperidin-1-yl)methyl)isoindoline-1,3-dione] | A (0% ≤ substrate protein remaining % ≤ 80%) | A (0% ≤ substrate protein remaining % ≤ 80%) | A (0% ≤ substrate protein remaining % ≤ 80%) | B (80%< substrate protein remaining %≤ 100%) | A (0% ≤ substrate protein remaining % ≤ 80%) | A (0% ≤ substrate protein remaining % ≤ 80%)
7 | O=C1CCN(N2C(=O)c3ccc(CN4CCN(c5noc6cc(F)ccc56)CC4)cc3C2=O)C(=O)N1 [GT-07524, 2-(2,4-dioxotetrahydropyrimidin-1(2H)-yl)-5-((4-(6-fluorobenzo[d]isoxazol-3-yl)piperazin-1-yl)methyl)isoindoline-1,3-dione] | A (0% ≤ substrate protein remaining % ≤ 80%) | A (0% ≤ substrate protein remaining % ≤ 80%) | A (0% ≤ substrate protein remaining % ≤ 80%) | B (80%< substrate protein remaining %≤ 100%) | B (80%< substrate protein remaining %≤ 100%) | A (0% ≤ substrate protein remaining % ≤ 80%)
8 | O=C1CCN(N2C(=O)c3ccc(CN4CCN(c5noc6ccncc56)CC4)cc3C2=O)C(=O)N1 [GT-07525, 2-(2,4-dioxotetrahydropyrimidin-1(2H)-yl)-5-((4-(isoxazolo[4,5-c]pyridin-3-yl)piperazin-1-yl)methyl)isoindoline-1,3-dione] | B (80%< substrate protein remaining %≤ 100%) | B (80%< substrate protein remaining %≤ 100%) | B (80%< substrate protein remaining %≤ 100%) | B (80%< substrate protein remaining %≤ 100%) | A (0% ≤ substrate protein remaining % ≤ 80%) | A (0% ≤ substrate protein remaining % ≤ 80%)
9 | O=C1CCN(N2C(=O)c3ccc(CN4CCN(c5nsc6cc(F)ccc56)CC4)cc3C2=O)C(=O)N1 [GT-07526, 2-(2,4-dioxotetrahydropyrimidin-1(2H)-yl)-5-((4-(6-fluorobenzo[d]isothiazol-3-yl)piperazin-1-yl)methyl)isoindoline-1,3-dione] | B (80%< substrate protein remaining %≤ 100%) | B (80%< substrate protein remaining %≤ 100%) | B (80%< substrate protein remaining %≤ 100%) | B (80%< substrate protein remaining %≤ 100%) | A (0% ≤ substrate protein remaining % ≤ 80%) | A (0% ≤ substrate protein remaining % ≤ 80%)
10 | O=C1CCN(N2C(=O)c3ccc(CN4CCN(c5n[nH]c6cc(F)ccc56)CC4)cc3C2=O)C(=O)N1 [GT-07527, 2-(2,4-dioxotetrahydropyrimidin-1(2H)-yl)-5-((4-(6-fluoro-1H-indazol-3-yl)piperazin-1-yl)methyl)isoindoline-1,3-dione] | B (80%< substrate protein remaining %≤ 100%) | B (80%< substrate protein remaining %≤ 100%) | B (80%< substrate protein remaining %≤ 100%) | B (80%< substrate protein remaining %≤ 100%) | A (0% ≤ substrate protein remaining % ≤ 80%) | A (0% ≤ substrate protein remaining % ≤ 80%)
